Read-outs that look alike come from different tables or passages of the source.
Legend:
HIV-1 = test: NCI in vitro anti-HIV drug screen: XTT-formazan assay, protection of T4 lymphocytes (CEM) from HIV-1 cytopathic effects; type: cell-based, human immunodeficiency virus (HIV-1); details: for EC50 / inhibition at 20 µM / inhibition at 2 µM / inhibition at 0.2 µM / inhibition at 0.02 µM / inhibition at 6.32 µM / inhibition at 0.633 µM / inhibition at 0.0634 µM / inhibition at 0.00635 µM / inhibition at 200 µM / inhibition at 63.2 µM / inhibition at 6.33 µM / inhibition at 0.634 µM / inhibition at 0.0635 µM: Human immunodeficiency virus 1, CCRF-CEM; for EC50: 144 h, HIV-1 infected CEM cells, 6 days, XTT, approximate values, read-out: EC50 (50% effective concentration against HIV cytopathic effects); for inhibition at 2 µM / activity at 2 µM: dose 2.00 × 10^-6 Molar; for inhibition at 0.2 µM / activity at 0.2 µM: dose 2.00 × 10^-7 Molar; for inhibition at 0.02 µM / activity at 0.02 µM: dose 2.00 × 10^-8 Molar; for inhibition at 6.32 µM / activity at 6.32 µM: dose 6.32 × 10^-6 Molar; for inhibition at 0.633 µM / activity at 0.633 µM: dose 6.33 × 10^-7 Molar; for activity at 20 µM / activity at 2 µM / activity at 0.2 µM / activity at 0.02 µM / activity at 6.32 µM / activity at 0.633 µM / activity at 0.0634 µM / activity at 0.00635 µM / activity at 200 µM / activity at 63.2 µM / activity at 6.33 µM / activity at 0.634 µM / activity at 0.0635 µM: Human immunodeficiency virus 1, Lymphocyte, read-out: Percent of Control, Infected; for TI50 (IC/EC), Therapeutic Index: IC50/EC50; for inhibition at 200 µM / activity at 200 µM: dose 2.00 × 10^-4 Molar; for inhibition at 0.634 µM / activity at 0.634 µM: dose 6.34 × 10^-7 Molar; for inhibition at 0.0635 µM / activity at 0.0635 µM: dose 6.35 × 10^-8 Molar
Description: Compounds of the present invention were evaluated for anti-HIV efficacy by the National Cancer Institute's (NCI) In Vitro Anti AIDS Drug Discovery Program.
(§1) The NCI procedure is fully described, for example, in a bulletin provided by the National Institutes of Health, National Cancer Institute, Bethesda, Md. 20892, all of which is incorporated herein by reference. As related in the NCI bulletin, the procedure is based on O. W. Weislow et al., "New soluble-formazan assay for HIV-1 cytopathic effects: application to high flux screening of synthetic and natural products for AIDS-antiviral activity", J. Natl. Cancer Inst. 81:577-586 (1989), and is used to test for compounds active against human immunodeficiency virus (HIV), and is designed to detect compounds active at any stage of the virus reproductive cycle. As further related in the NCI bulletin, the assay includes killing of T4 lymphocytes by HIV. Amounts of HIV are added to cells, with a minimum of two cycles of virus reproduction found to be necessary to obtain the required cell killing. Compounds that interact with virions, cells, or virus gene-products to interfere with viral activities will protect cells from cytolysis. All were compared with a positive (e.g., AZT-treated) control evaluation at the same time under identical conditions. The procedure is set forth as follows:
(§2) A candidate compound is first dissolved in a suitable solvent, preferably dimethyl sulfoxide, then diluted 1:100 in cell culture medium before preparing serial half-log10 dilutions. T4 lymphocytes (CEM cell line) are then added and after a brief interval HIV-1 is added, resulting in a 1:200 final dilution of the compound. Uninfected cells with the compound serve as a toxicity control, and infected and uninfected without the compound serve as basic controls. Cultures are then incubated at 37° in a 5% carbon dioxide atmosphere for 6 days. The tetrazolium salt, XTT, is added to all wells, and cultures are incubated to allow formazan color development by viable cells. Individual wells are analyzed spectrophotometrically to quantitate formazan product, and in addition are viewed microscopically for detection of viable cells and confirmation of protective activity. Drug-treated virus-infected cells are compared with drug-treated noninfected cells and with other appropriate controls (untreated infected and untreated noninfected cells, drug-containing wells without cells, etc.) on the same plate. Data are reviewed in comparison with other tests performed at the same time and a determination as to activity is made.

[1] = tested on: T4 lymphocytes (CEM cell line); test: Cell growth / toxicity control in uninfected T4 lymphocytes (CEM), XTT-formazan; type: cell-based; details: Homo sapiens, CCRF-CEM; for IC50: 144 h, approximate values; for activity at 20 µM: dose 2.00 × 10^-5 Molar; for activity at 20 µM / activity at 2 µM / activity at 0.2 µM / activity at 0.02 µM / activity at 6.32 µM / activity at 0.633 µM / activity at 0.0634 µM / activity at 0.00635 µM / activity at 200 µM / activity at 63.2 µM / activity at 6.33 µM / activity at 0.634 µM / activity at 0.0635 µM: read-out: Percent of Control, Uninfected; for activity at 2 µM: dose 2.00 × 10^-6 Molar; for activity at 0.2 µM: dose 2.00 × 10^-7 Molar; for activity at 0.02 µM: dose 2.00 × 10^-8 Molar; for activity at 6.32 µM: dose 6.32 × 10^-6 Molar; for activity at 0.633 µM: dose 6.33 × 10^-7 Molar; for activity at 0.0634 µM: dose 6.34 × 10^-8 Molar; for activity at 0.00635 µM: dose 6.35 × 10^-9 Molar; for activity at 200 µM: dose 2.00 × 10^-4 Molar; for activity at 63.2 µM: dose 6.32 × 10^-5 Molar; for activity at 6.33 µM: dose 6.33 × 10^-6 Molar; for activity at 0.634 µM: dose 6.34 × 10^-7 Molar; for activity at 0.0635 µM: dose 6.35 × 10^-8 Molar
Description: as §1, §2

[2] = dose 2.00 × 10^-5 Molar, read-out: Percent of Protection
[3] = read-out: Percent of Protection
[4] = uninfected CEM cells, 6 days, XTT, read-out: IC50 (50% inhibitory concentration for cell growth)

Cc1cc2c(c(S(=O)(=O)c3ccccc3[N+](=O)[O-])c1)NCCC2 [Compound 50, 8-(2-nitrophenyIsulfonyl)6-methyl-1,2,3,4-tetrahydroquinoline]
EC50 (HIV-1): 75.1 nM
inhibition at 20 µM (HIV-1; [2]): 97.4%
inhibition at 2 µM (HIV-1; [3]): 107%
inhibition at 0.2 µM (HIV-1; [3]): 86.3%
inhibition at 0.02 µM (HIV-1; [3]): -2.76%
inhibition at 6.32 µM (HIV-1; [3]): 109%
inhibition at 0.633 µM (HIV-1; [3]): 84.2%
inhibition at 0.0634 µM (HIV-1; read-out: Percent of Protection, dose 6.34 × 10^-8 Molar): 44.1%
inhibition at 0.00635 µM (HIV-1; read-out: Percent of Protection, dose 6.35 × 10^-9 Molar): -3.62%
activity at 20 µM (HIV-1; dose 2.00 × 10^-5 Molar): 97.6%
activity at 2 µM (HIV-1): 106%
activity at 0.2 µM (HIV-1): 87.6%
activity at 0.02 µM (HIV-1): 6.49%
activity at 6.32 µM (HIV-1): 108%
activity at 0.633 µM (HIV-1): 85.7%
activity at 0.0634 µM (HIV-1; dose 6.34 × 10^-8 Molar): 49.1%
activity at 0.00635 µM (HIV-1; dose 6.35 × 10^-9 Molar): 5.71%
TI50 (IC/EC), Therapeutic Index (HIV-1): > 2.66 × 10^-2
IC50 ([1]; read-out: IC50 (50% inhibitory concentration for cell growth), uninfected CEM cells, 6 days, XTT): > 20 µM
activity at 20 µM [1]: 101%
activity at 2 µM [1]: 91%
activity at 0.2 µM [1]: 87.1%
activity at 0.02 µM [1]: 88.4%
activity at 6.32 µM [1]: 91.2%
activity at 0.633 µM [1]: 89.3%
activity at 0.0634 µM [1]: 90.5%
activity at 0.00635 µM [1]: 90.2%

CNc1ccc(S(=O)(=O)c2ccccc2[N+](=O)[O-])cc1Cl [Compound 77, 4-(2-nitrophenylsulfonyl)-2-chloro-N-methylaniline]
EC50 (HIV-1): 119 nM
inhibition at 200 µM (HIV-1; [3]): 100%
inhibition at 20 µM (HIV-1; [2]): 96.7%
inhibition at 2 µM (HIV-1; [3]): 100%
inhibition at 0.2 µM (HIV-1; [3]): 82%
inhibition at 63.2 µM (HIV-1; dose 6.32 × 10^-5 Molar, read-out: Percent of Protection): 106%
inhibition at 6.33 µM (HIV-1; dose 6.33 × 10^-6 Molar, read-out: Percent of Protection): 99.5%
inhibition at 0.634 µM (HIV-1; [3]): 89.8%
inhibition at 0.0635 µM (HIV-1; [3]): 12.3%
activity at 200 µM (HIV-1): 100%
activity at 20 µM (HIV-1; dose 2.00 × 10^-5 Molar): 96.8%
activity at 2 µM (HIV-1): 100%
activity at 0.2 µM (HIV-1): 82.9%
activity at 63.2 µM (HIV-1; dose 6.32 × 10^-5 Molar): 106%
activity at 6.33 µM (HIV-1; dose 6.33 × 10^-6 Molar): 99.5%
activity at 0.634 µM (HIV-1): 90.3%
activity at 0.0635 µM (HIV-1): 16.7%
TI50 (IC/EC), Therapeutic Index (HIV-1): > 1.69 × 10^+3
IC50 [1, 4]: > 200 µM
activity at 200 µM [1]: 111%
activity at 20 µM [1]: 89.7%
activity at 2 µM [1]: 110%
activity at 0.2 µM [1]: 106%
activity at 63.2 µM [1]: 95.2%
activity at 6.33 µM [1]: 100%
activity at 0.634 µM [1]: 107%
activity at 0.0635 µM [1]: 111%

CNc1c(Cl)cccc1S(=O)(=O)c1ccccc1[N+](=O)[O-] [Compound 78, 2-(2-nitrophenylsulfonyl)-6-chloro-N-methylaniline]
EC50 (HIV-1): 220 nM
inhibition at 20 µM (HIV-1; [2]): 89.5%
inhibition at 2 µM (HIV-1; [3]): 93.9%
inhibition at 0.2 µM (HIV-1; [3]): 45.9%
inhibition at 0.02 µM (HIV-1; [3]): 8.88%
inhibition at 6.32 µM (HIV-1; [3]): 96%
inhibition at 0.633 µM (HIV-1; [3]): 100%
inhibition at 0.0634 µM (HIV-1; dose 6.34 × 10^-8 Molar, read-out: Percent of Protection): 12.2%
inhibition at 0.00635 µM (HIV-1; dose 6.35 × 10^-9 Molar, read-out: Percent of Protection): 2.69%
activity at 20 µM (HIV-1; dose 2.00 × 10^-5 Molar): 89.8%
activity at 2 µM (HIV-1): 94.1%
activity at 0.2 µM (HIV-1): 47%
activity at 0.02 µM (HIV-1): 10.7%
activity at 6.32 µM (HIV-1): 96%
activity at 0.633 µM (HIV-1): 100%
activity at 0.0634 µM (HIV-1; dose 6.34 × 10^-8 Molar): 13.9%
activity at 0.00635 µM (HIV-1; dose 6.35 × 10^-9 Molar): 4.64%
TI50 (IC/EC), Therapeutic Index (HIV-1): > 9.08 × 10^+1
IC50 [1, 4]: > 20 µM
activity at 20 µM [1]: 85.5%
activity at 2 µM [1]: 85.6%
activity at 0.2 µM [1]: 85.2%
activity at 0.02 µM [1]: 92.2%
activity at 6.32 µM [1]: 91.5%
activity at 0.633 µM [1]: 86.4%
activity at 0.0634 µM [1]: 87.4%
activity at 0.00635 µM [1]: 88.5%

CN(c1ccccc1Cl)S(=O)(=O)c1ccccc1[N+](=O)[O-] [Compound 38, N-(2-nitrophenylsulfonyl)-2chloro-N-methylaniline]
EC50 (HIV-1): 4380 nM
inhibition at 200 µM (HIV-1; [3]): 2.73%
inhibition at 2 µM (HIV-1; [3]): 10.4%
inhibition at 0.2 µM (HIV-1; [3]): 2.73%
inhibition at 0.634 µM (HIV-1; [3]): -0.31%
inhibition at 0.0635 µM (HIV-1; [3]): -0.27%
inhibition at 20 µM (HIV-1; read-out: Percent of Protection, dose 2.00 × 10^-5 Molar): 61.9%
inhibition at 63.2 µM (HIV-1; read-out: Percent of Protection, dose 6.32 × 10^-5 Molar): -0.27%
inhibition at 6.33 µM (HIV-1; read-out: Percent of Protection, dose 6.33 × 10^-6 Molar): 69%
activity at 200 µM (HIV-1): 28.4%
activity at 20 µM (HIV-1; dose 2.00 × 10^-5 Molar): 63.8%
activity at 2 µM (HIV-1): 14.9%
activity at 0.2 µM (HIV-1): 7.25%
activity at 63.2 µM (HIV-1; dose 6.32 × 10^-5 Molar): 26.1%
activity at 6.33 µM (HIV-1; dose 6.33 × 10^-6 Molar): 70.6%
activity at 0.634 µM (HIV-1): 4.71%
activity at 0.0635 µM (HIV-1): 4.74%
TI50 (IC/EC), Therapeutic Index (HIV-1): 7.79 × 10^0
IC50 [1, 4]: 34.1 µM
activity at 200 µM [1]: 3.62%
activity at 20 µM [1]: 75.7%
activity at 2 µM [1]: 98.2%
activity at 0.2 µM [1]: 99.3%
activity at 63.2 µM [1]: 20.3%
activity at 6.33 µM [1]: 94.2%
activity at 0.634 µM [1]: 98.6%
activity at 0.0635 µM [1]: 101%

Source: US6303630A, “Diarylsulfone non-nucleoside reverse transcriptase inhibitors of human immunodeficiency virus” (University of the Sciences in Philadelphia, priority 2000, dated 2001)
